According to patent US20230081321A1, “CARBONIC ANHYDRASE II COMPOSITIONS AND METHODS OF USE THEREOF” (University of Florida Research Foundation, Incorporated, priority 2020, published 2023):
“Also recorded” adds a separate entry of the source.

How the values were obtained:
[1] = cited from earlier work
[2] = molecular target: T1, CAII (Homo sapiens, UniProt P00918); experiment: CAII esterase inhibition assay with 4-nitrophenyl acetate (pNPA) as colorimetric substrate; conditions: at physiologically relevant concentrations
[3] = test system: mouse hearts; experiment: Oxygen consumption by Langendorff-perfused mouse hearts; conditions: 1 mM inhibitor, ex vivo Langendorff perfusion, C57BL6 mouse hearts, O2 in minus O2 out vs control solution
Procedure: To test the effects of carbonic anhydrase inhibitors on oxygen consumption, Langendorff perfusion experiments were conducted using mouse hearts. Hearts were isolated from ˜12-week-old C57BL6 male mice and perfused ex vivo in Langendorff mode (retrograde perfusion via the aorta) with perfusate containing Krebs-Henseleit electrolytes with 2 mM acetate. The perfusate was constantly oxygenated with an oxygenator. […] The inhibitor solution was oxygenated by bubbling with 95% O2/5% CO2 mixed gas prior to adding.
Dissolved oxygen concentration was measured in the perfusate, or in the carbonic anhydrase inhibitor solution, using an Oxygraph+ system. […] In each figure, “O2 in” refers to the oxygen concentration in the perfusate prior to entering the heart or in the carbonic anhydrase inhibitor solution, and “O2 out” refers to the oxygen concentration in the perfusate after it passes through the heart.
Oxygen consumption was measured as the difference between the O2 in measurements and the O2 out measurements, and results are shown in FIG. 32.

[4] = molecular target: T1, CAII; conditions: CAII binding; cited from earlier work

## CC(=O)Oc1ccccc1C(=O)O [Aspirin, Acetylsalicylic acid]
[1]
  half-life in blood: ~15 min

## O=C(O)c1ccccc1O [SA, salicylic acid]
[2]
  inhibition of CAII: completely inhibited CAII

## CC(=O)Nc1nnc(S(N)(=O)=O)s1 [acetazolamide]
[3]
  oxygen consumption by the heart: increase in oxygen consumption; also recorded: increased oxygen consumption

## [Cu] [copper]
[4]
  specificity toward copper over zinc: 50 fold

## CCN[C@H]1C[C@H](C)S(=O)(=O)c2sc(S(N)(=O)=O)cc21 [dorzolamide]
[3]
  oxygen consumption by the heart: increase in oxygen consumption; also recorded: increased oxygen consumption
